Entries after “also recorded” stand apart in the source; their conditions may differ. Like-named read-outs stand apart in the source and are kept apart here.
How the values were obtained:
Format in all cases: biochemical
[1] = tested on: Mutanase B (RM4 enzyme) from Bacillus sp. RM4 (FERM P-14837)
Experimental: (§1) To 100 μl of a 0.1M acetic acid buffer containing 3% mutan (pH 5) was added 100 μl of the mutanase solution. The mixture was incubated at 35° C. for 10 minutes with shaking at 100 strokes/min. Reaction was terminated by adding 0.4 ml of a 4,6-dinitrosalicylic acid (DNS) solution. The reaction mixture was centrifuged and 0.5 ml of the supernatant was transferred into a test tube. The tube was capped with a glass ball and kept in boiling water for 10 minutes. The tube was cooled with water for 5 minutes. Then 4 ml of distilled water was added and optical absorbance measured at 530 nm. A titer was determined using glucose as standard. The amount of enzyme which releases 1 μg of reducing sugar per minute is defined as one unit. It is noted that the enzymatic activity referred to below in conjunction with any of physicochemical properties is measured by this method.
(§2) Mutanase according to the invention was added to a 50 mM acetic acid buffer (pH 5) in an amount of 50 units/ml. Various inhibitors were individually added thereto in a final concentration of 1 mM. The solution was incubated at 35° C. for 30 minutes. The relative activity is expressed based on the assumption that the enzymatic activity of an inhibitor-free sample is 100%.

[2] = tested on: Mutanase A (RM1 enzyme) from Bacillus sp. RM1 (FERM P-14836)
Experimental: as §1, §2

[3] = tested on: Mutanase C (M7 enzyme) from Bacillus sp. M7 (FERM P-14835)
Experimental: as §1, §2

[4] = inhibitor final concentration 1 mM, 50 mM acetic acid buffer pH 5, 35° C., 30 minutes, inhibitor-free sample = 100%
[5] = mutan substrate, 1 mM inhibitor

Row | Structure (SMILES) | Relative activity (%) Mutanase B ([1]; pH 5) | Relative activity (%) Mutanase A ([2]; pH 5) | Relative activity (%) Mutanase C ([3]; pH 5) | Relative activity (%) Mutanase B [1, 4] | Relative activity (%) Mutanase A [2, 4] | Relative activity (%) Mutanase C [3, 4] | effect of inhibitors on mutanase B (in words) [1, 5] | effect of inhibitors on mutanase A (in words) [2, 5] | effect of inhibitors on mutanase C (in words) [3, 5]
1 | O=C(O)CN(CCN(CC(=O)O)CC(=O)O)CC(=O)O [2Na-EDTA] | 99% | 93% | 79% |  |  |  |  |  | 
2 | O=C(O)CI [Iodoacetic acid] | 99% | 100% | 87% |  |  |  |  |  | 
3 | CCN1C(=O)C=CC1=O [N-ethylmaleimide] |  |  |  | 98% | 100% | 94% |  |  | 
4 | O=C(O)c1cc[c]([Hg][Cl])cc1 [PCMB, p-chloromercurybenzoic acid] |  |  |  | 14% | 6% | 11% | shows inhibitory effect; also recorded: strongly inhibits | shows inhibitory effect; also recorded: strongly inhibits | shows inhibitory effect; also recorded: strongly inhibits

From US5741487A, “Mutanase-containing oral compositions” (priority 1996, dated 1998)
